From patent publication US9586973B2, “HDAC6 inhibitors and uses thereof” (Universiteit Gent, priority 2013, dated 2017)
Read-outs that look alike come from different tables or passages of the source.

Tests used:
[1] = biological target: HDAC1 (Homo sapiens, UniProt Q13547); test: HDAC1 inhibitory activity (in vitro pharmacology); type: biochemical; conditions: for inhibition at 10 µM: read-out: % inhibition HDAC1
[2] = biological target: T1, HDAC6 (Homo sapiens, UniProt Q9UBN7); test: biochemical; conditions: for inhibition at 10 µM: read-out: % inhibition HDAC6
T1 sequence (Q9UBN7 1-1215): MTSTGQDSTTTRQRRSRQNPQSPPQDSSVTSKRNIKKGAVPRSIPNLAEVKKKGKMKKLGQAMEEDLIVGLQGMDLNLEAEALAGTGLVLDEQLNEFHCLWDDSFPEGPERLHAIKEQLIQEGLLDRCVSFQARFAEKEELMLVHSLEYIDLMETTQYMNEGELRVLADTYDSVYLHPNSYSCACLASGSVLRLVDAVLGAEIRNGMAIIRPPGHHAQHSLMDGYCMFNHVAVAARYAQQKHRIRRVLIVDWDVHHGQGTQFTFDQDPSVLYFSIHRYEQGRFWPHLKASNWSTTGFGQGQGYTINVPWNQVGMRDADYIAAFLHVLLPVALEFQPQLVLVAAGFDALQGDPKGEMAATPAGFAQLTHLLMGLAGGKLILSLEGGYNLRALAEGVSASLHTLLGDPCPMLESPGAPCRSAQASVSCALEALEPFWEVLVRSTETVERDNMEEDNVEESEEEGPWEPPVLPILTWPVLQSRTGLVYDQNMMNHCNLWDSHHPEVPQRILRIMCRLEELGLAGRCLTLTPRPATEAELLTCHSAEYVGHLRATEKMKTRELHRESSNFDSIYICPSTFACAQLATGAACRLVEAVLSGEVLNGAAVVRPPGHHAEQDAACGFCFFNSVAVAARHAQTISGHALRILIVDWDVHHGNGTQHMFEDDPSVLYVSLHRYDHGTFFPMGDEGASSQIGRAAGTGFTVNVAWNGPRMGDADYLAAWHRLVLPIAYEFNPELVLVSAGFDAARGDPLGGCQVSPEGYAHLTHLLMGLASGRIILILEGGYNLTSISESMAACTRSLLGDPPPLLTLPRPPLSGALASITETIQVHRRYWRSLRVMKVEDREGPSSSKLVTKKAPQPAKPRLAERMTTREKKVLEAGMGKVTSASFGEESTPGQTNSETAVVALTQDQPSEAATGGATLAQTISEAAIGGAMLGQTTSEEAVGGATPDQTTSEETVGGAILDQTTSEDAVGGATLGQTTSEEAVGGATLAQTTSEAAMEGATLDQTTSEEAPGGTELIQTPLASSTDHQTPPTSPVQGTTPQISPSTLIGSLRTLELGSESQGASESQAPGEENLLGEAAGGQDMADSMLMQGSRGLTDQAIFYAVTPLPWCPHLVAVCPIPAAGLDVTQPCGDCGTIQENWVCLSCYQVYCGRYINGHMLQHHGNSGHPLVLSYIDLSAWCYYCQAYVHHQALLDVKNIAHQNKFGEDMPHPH

[3] = system: MO4 mouse fibrosarcoma cells; test: SRB assay, inhibition of cell proliferation; type: cell-based; conditions: tested at 0.01, 0.1, 1 and 10 μg/ml, FIG. 2
Method: The sulforhodamine B (SRB) assay is used for cell density determination, and is based on the measurement of cellular protein content (“biomass”)^12,13. The method has been optimized for the screening of compounds for growth effects on adherent cells in a 96-well format. After an incubation period with the compound of the invention, cell monolayers (MO4 mouse fibrosarcoma cells) are fixed with 50% (wt/vol) trichloroacetic acid for 1 hour and stained with SRB for 30 min, after which the excess dye is removed by washing repeatedly with 1% (vol/vol) […]. The protein-bound dye is dissolved in 10 mM Tris base solution for OD determination at 570 nm using a microplate reader. […] The method allows to test a large number of samples within a few days, and is a quantitative assay for growth inhibition by microtubule inhibitors.

[4] = MTT assay, inhibition of cell proliferation; conditions: tested at 0.01, 0.1, 1 and 10 μg/ml; FIG. 3
[5] = biological target: HDAC4 (Homo sapiens, UniProt P56524); test: HDAC4 inhibition (selectivity); type: biochemical
[6] = biological target: T2, HDAC8 (Homo sapiens, UniProt Q9BY41); test: HDAC8 inhibition (selectivity); type: biochemical
T2 sequence (Q9BY41 1-377): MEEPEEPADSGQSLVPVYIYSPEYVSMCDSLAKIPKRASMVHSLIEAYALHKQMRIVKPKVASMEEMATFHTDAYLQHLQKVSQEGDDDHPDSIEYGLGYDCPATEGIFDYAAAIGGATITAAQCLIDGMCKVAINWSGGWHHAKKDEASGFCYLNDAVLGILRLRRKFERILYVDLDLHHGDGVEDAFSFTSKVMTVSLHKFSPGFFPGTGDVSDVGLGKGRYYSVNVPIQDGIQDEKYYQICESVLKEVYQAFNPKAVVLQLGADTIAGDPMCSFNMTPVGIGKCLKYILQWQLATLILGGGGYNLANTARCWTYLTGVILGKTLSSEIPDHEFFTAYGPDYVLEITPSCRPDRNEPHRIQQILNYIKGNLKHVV

[7] = biological target: T3, HDAC11 (Homo sapiens, UniProt Q96DB2); test: HDAC11 inhibition (selectivity); type: biochemical; conditions: for HDAC 11 inhibitory effect: no IC50 values could be obtained
T3 sequence (Q96DB2 1-347): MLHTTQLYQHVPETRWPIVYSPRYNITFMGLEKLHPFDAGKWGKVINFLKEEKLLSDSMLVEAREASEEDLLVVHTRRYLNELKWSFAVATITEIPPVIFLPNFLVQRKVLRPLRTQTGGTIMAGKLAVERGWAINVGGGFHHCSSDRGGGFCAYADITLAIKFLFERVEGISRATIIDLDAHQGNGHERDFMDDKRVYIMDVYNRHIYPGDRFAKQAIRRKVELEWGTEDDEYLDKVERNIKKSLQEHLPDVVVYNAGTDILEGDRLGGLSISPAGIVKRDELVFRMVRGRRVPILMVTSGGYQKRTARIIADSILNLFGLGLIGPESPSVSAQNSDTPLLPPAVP

[8] = system: MDA MB 231 human mammary adenocarcinoma cells; test: Collagen invasion assay; type: cell-based; conditions: for inhibition of invasion of cells into collagen type I gel: 24 hours, FIG. 4
Description: Tissue invasion requires infiltration into an extracellular matrix (ECM) dominated by networks of collagen type I. The invasion model consists of native, acid-extracted rat tail collagen type I containing nonhelical telopeptides situated at the N- and C-terminal ends. These telopeptides play an important role in intermolecular covalent cross-links necessary for a gel architecture presenting itself as a structural barrier to cancer cell traffic. […] The collagen type I solution was gently poured into the wells of a 6-well plate. The experimental set-up was placed at 37° C. in a humidified atmosphere with 10% CO2 in air for at least 1 h. […] Invasion is calculated as the percentage of invading cells per high powered field and is expressed as the mean and standard deviation.
Compound 7c (10 μg/ml) and paclitaxel (1 μg/ml) were tested in the assay. As a control, cells in medium without additional compounds was used. The effect of the solvent of compound 7c (1% DMSO) was measured as well.

[9] = read-out: IC50 values for HDAC6 inhibition, Table 3 and text

Sequence of HDAC1 (Q13547 whole entry, species assumed): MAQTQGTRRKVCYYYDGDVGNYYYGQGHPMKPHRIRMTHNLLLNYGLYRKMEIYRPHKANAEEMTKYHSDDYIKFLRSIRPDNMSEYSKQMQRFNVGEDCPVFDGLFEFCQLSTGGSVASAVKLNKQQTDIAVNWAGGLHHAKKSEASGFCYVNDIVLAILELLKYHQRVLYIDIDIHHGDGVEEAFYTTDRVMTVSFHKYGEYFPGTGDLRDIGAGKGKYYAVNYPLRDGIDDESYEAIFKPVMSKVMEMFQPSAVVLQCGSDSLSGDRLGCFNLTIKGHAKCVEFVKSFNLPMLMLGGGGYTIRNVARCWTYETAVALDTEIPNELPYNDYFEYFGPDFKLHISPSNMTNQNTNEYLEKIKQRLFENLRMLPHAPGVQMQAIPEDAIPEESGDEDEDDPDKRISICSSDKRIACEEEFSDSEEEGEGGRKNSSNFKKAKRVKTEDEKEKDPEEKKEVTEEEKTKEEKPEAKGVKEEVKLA
Sequence of HDAC4 (P56524 whole entry, species assumed): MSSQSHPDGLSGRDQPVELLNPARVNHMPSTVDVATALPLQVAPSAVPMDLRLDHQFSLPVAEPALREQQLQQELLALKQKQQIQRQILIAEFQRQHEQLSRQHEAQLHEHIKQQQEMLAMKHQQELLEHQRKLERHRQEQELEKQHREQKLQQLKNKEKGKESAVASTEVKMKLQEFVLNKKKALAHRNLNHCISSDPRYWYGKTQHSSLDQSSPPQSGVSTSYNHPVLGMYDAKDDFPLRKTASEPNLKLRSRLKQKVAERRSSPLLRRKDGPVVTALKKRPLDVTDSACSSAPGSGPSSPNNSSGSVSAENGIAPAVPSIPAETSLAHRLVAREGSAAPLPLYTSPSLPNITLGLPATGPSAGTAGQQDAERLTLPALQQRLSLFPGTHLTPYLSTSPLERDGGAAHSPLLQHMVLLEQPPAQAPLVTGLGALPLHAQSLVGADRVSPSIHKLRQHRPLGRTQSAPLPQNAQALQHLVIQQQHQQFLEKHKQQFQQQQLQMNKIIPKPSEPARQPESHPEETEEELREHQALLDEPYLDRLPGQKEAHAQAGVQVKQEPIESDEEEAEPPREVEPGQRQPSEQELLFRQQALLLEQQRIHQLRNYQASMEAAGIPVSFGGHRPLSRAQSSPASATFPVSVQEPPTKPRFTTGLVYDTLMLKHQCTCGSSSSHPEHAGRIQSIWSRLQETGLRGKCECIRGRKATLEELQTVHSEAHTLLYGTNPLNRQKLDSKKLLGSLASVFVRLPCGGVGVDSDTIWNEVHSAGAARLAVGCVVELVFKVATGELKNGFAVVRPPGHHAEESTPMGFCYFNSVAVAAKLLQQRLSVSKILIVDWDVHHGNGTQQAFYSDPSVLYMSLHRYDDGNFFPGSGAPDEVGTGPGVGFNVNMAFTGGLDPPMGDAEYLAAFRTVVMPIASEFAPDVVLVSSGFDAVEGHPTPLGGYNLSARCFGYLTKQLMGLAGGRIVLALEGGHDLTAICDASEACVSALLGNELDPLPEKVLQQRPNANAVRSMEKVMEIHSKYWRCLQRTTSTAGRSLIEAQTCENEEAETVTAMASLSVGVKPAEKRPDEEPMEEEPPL

| SMILES | inhibition at 10 µM [1] [%] | IC50 [2] [nM] | inhibition at 10 µM [2] [%] | inhibition of cell proliferation, SRB assay [3] | inhibition of cell proliferation, MTT assay [4] | IC50 [1] [nM] | HDAC6 versus HDAC8 selectivity [2] [fold] | IC50 ([2]; read-out: HDAC6 IC50, Table 4) [nM] | IC50 [2, 9] [nM] | IC50 [5] [nM] | IC50 [6] [nM] | further results |
| --- | --- | --- | --- | --- | --- | --- | --- | --- | --- | --- | --- | --- |
| O=C(NO)c1ccc(Cn2c3c(c4ccccc42)CSCC3)cc1 [Compound 7a, N-(4-Hydroxycarbamoylbenzyl)-1,2,4,9-tetrahydro-3-thia-9-azafluorene] | 26 | 15 | 99 | inhibit cell proliferation | inhibition of cell proliferation | – | – | – | – | – | – | inhibition of cell proliferation, SRB assay ([3]; listed as 7A): inhibition of cell proliferation |
| O=C(NO)c1ccc(Cn2c3c(c4cc(F)ccc42)CSCC3)cc1 [Compound 7c, N-(4-Hydroxycarbamoylbenzyl)-6-fluoro-1,2,4,9-tetrahydro-3-thia-9-azafluorene] | 17 | 22 | 99 | inhibit cell proliferation | inhibition of cell proliferation | 21000 | 127 | 22 | 22 | 1500 | 2800 | IC50 [7]: 9700 nM; inhibition of cell proliferation, SRB assay ([3]; listed as 7C): inhibition of cell proliferation; inhibition of invasion of cells into collagen type I gel ([8]; 10 μg/ml, compared to solvent control (1% DMSO)): inhibits invasion; inhibition of invasion of cells into collagen type I gel ([8]; 10 μg/ml, compared to solvent control (1% DMSO), listed as 7C): inhibition of invasion; histology of invasion ([8]; after 14 days): confirmed inhibition of invasion |
| O=C(NO)c1ccc(Cn2c3c(c4ccccc42)CS(=O)(=O)CC3)cc1 [Compound 10a, N-(4-Hydroxycarbamoylbenzyl)-1,2,4,9-tetrahydro-3-thia-9-azafluorene-3,3-dioxide] | 51 | 1.9 | 99 | – | – | 11000 | 895 | 1.9 | 1.9 | 1600 | 1700 | IC50 ([1]; read-out: HDAC1 IC50, Table 5): 11000 nM; HDAC6 versus HDAC4 selectivity [2]: 842 fold; selectivity against HDAC1 (HDAC6 vs HDAC1) [2]: 5789 fold; Selectivity = IC50 (HDAC1)/IC50 (HDAC6) ([2]; Table 5): 5789; IC50 ([2]; read-out: HDAC6 IC50, Table 5): 1.9 nM; HDAC 11 inhibitory effect [7]: very low |
| COc1cc(C(=O)NO)ccc1Cn1c2c(c3ccccc31)CS(=O)(=O)CC2 [Compound 10b] | 2 | 2000 | 73 | – | – | – | – | – | – | – | – | – |
| O=C(NO)c1ccc(Cn2c3c(c4cc(F)ccc42)CS(=O)(=O)CC3)cc1 [Compound 10c, N-(4-Hydroxycarbamoylbenzyl)-6-fluoro-1,2,4,9-tetrahydro-3-thia-9-azafluorene-3,3-dioxide] | 53 | 3.7 | 99 | – | – | 12000 | 251 | 3.7 | 3.7 | 1900 | 930 | IC50 ([1]; read-out: HDAC1 IC50, Table 5): 12000 nM; HDAC6 versus HDAC4 selectivity [2]: 513 fold; selectivity against HDAC1 (HDAC6 vs HDAC1) [2]: 3243 fold; Selectivity = IC50 (HDAC1)/IC50 (HDAC6) ([2]; Table 5): 3243; IC50 ([2]; read-out: HDAC6 IC50, Table 5): 3.7 nM; HDAC 11 inhibitory effect [7]: very low |
| COc1cc(C(=O)NO)ccc1Cn1c2c(c3cc(F)ccc31)CS(=O)(=O)CC2 [Compound 10d] | 8 | 1300 | 75 | – | – | – | – | – | – | – | – | – |
| CC(=O)O[C@H]1C(=O)[C@@]2(C)[C@H]([C@H](OC(=O)c3ccccc3)[C@]3(O)C[C@H](OC(=O)[C@H](O)[C@@H](NC(=O)c4ccccc4)c4ccccc4)C(C)=C1C3(C)C)[C@]1(OC(C)=O)CO[C@@H]1C[C@@H]2O [Paclitaxel, reference compound] | – | – | – | inhibition of cell proliferation | inhibition of cell proliferation | – | – | – | – | – | – | inhibition of invasion of cells into collagen type I gel ([8]; 1 μg/ml): inhibition of invasion |
